According to patent US20020128320A1, “Method of administering calcium citrate” (UniServices Ltd., priority 2001, published 2002):
Entries after “also recorded” stand apart in the source; their conditions may differ. Read-outs that look alike come from different tables or passages of the source.

Legend:
[1] = 13 men, cited from earlier work
[2] = 6 weeks; 56 subjects; cited from earlier work
[3] = 193 subjects; cited from earlier work
[4] = Randomized placebo-controlled trial of calcium citrate: fasting serum lipids; type: in vivo, normal postmenopausal women
Description: (§1) A randomized controlled trial of calcium supplementation in 223 normal postmenopausal women aged 55 years or older. Women receiving therapy for osteoporosis were ineligible, as were those with any other major ongoing disease, including serum creatine greater than 0.2 mmol/L, untreated hypo- or hyperthyroidism, liver disease, serum 25-hydroxyvitamin D less than 10 μg/L, malignancy or metabolic bone disease. None of the subjects had been regular users of hormone replacement therapy, anabolic steroids, glucocorticoids or bisphosphonates in the previous 1 year. Lumbar spine bone density (Lunar Expert, Madison, Wis.) was not below the age-appropriate normal range. In the present sub-study there was the further requirement that subjects were not receiving therapy for hyperlipidemia.
266 subjects were assessed for eligibility for the sub-study, and 223 entered the study, of which 111 women were randomized to calcium and 112 to placebo. 20 women in the calcium group discontinued study medication as did 26 in the placebo group. […] The study was approved by the local ethics committee, and each subject gave written, informed consent. There were not significant differences between groups.
Treatments were allocated randomly using a minimization algorithm balancing for current thiazide use, age and the occurrence of fractures resulting from minimal trauma after the age of 40 years. Subjects received 1 gram of elemental calcium daily as the citrate (Citracal, Mission Pharmacal, San Antonio Tex.) or identical placebo. They were asked to take two tablets (each containing 200 mg elemental calcium) before breakfast and three tablets in the evening. Calcium intake and physical activity were assessed using validated questionnaires (Angus et al., 1989; Wilson et al., 1986). Compliance was assessed by tablet counts.
Fasting total cholesterol, high-density lipoprotein cholesterol and triglycerides were measured in serum at baseline, 2 months, 6 months, and one year, using a Roche-Hitachi 747 autoanalyzer (Mannherim, Germany). The cholesterol assay used cholesterol oxidase, high-density lipoprotein measurement was by a direct non-precipitation method using PEG-modified enzymes (cholesterol oxidase), and triglycerides were assayed using a glycerol kinase/oxidase method after initial hydrolysis using lipoprotein lipase. Low-density lipoprotein was calculated using the Friedewald formula:
LDL=TC−HDL−(0.45×triglyceride)
Data were analyzed on an intention-to-treat basis, using a fixed effects mixed models approach to repeated measures using the MIXED procedure of SAS (SAS Institute, Cary, N.C.). Significant main and interaction effects were explained using the method of Tukey. In complimentary analyses, the change from baseline for each continuous normal dependant variable was compared between treatment and placebo arms using Student's t-test for independent groups. A 5% significance level was maintained throughout these analyses.

[5] = Randomized placebo-controlled trial of calcium citrate: body weight; type: in vivo, normal postmenopausal women
Description: as §1, with “In the present sub-study there was the further requirement that subjects were not receiving therapy for hyperlipidemia.” left out
266 subjects were assessed for eligibility for the sub-study, and 223 entered the study, of which 111 women were randomized to calcium and 112 to placebo. […]
Treatments were allocated randomly using a minimization algorithm balancing for current thiazide use, age and the occurrence of fractures resulting from minimal trauma after the age of 40 years. […] Calcium intake and physical activity were assessed using validated questionnaires (Angus et al., 1989; Wilson et al., 1986). Compliance was assessed by tablet counts.
Data were analyzed on an intention-to-treat basis, using a fixed effects mixed models approach to repeated measures using the MIXED procedure of SAS (SAS Institute, Cary, N.C.). […]

[6] = intention-to-treat analysis, 12 months, 1 g elemental calcium daily

What does the source list for calcium citrate malate?
increase in saturated fat excretion ([1]; food and tablets): 7%; low-density lipoprotein levels decrease ([1]; food and tablets): 11%; reduction in plasma cholesterol ([1]; food and tablets): 6%; high-density lipoprotein levels change ([1]; increased in some subjects and decreased in others): insignificant

What does the source list for O=C([O-])[O-].[Ca+2] [calcium carbonate]?
change in total cholesterol [2]: statistically insignificant decrease; changes in total cholesterol, high-density lipoprotein level, and blood pressure [3]: statistically insignificant changes

With O=C([O-])CC(O)(CC(=O)[O-])C(=O)[O-].O=C([O-])CC(O)(CC(=O)[O-])C(=O)[O-].[Ca+2].[Ca+2].[Ca+2] [calcium citrate] as the molecule, how does the “high-density lipoprotein/low-density lipoprotein ratio increase (summary statement)” value ([4]; daily dose about 1 gram elemental calcium) read?
The value was about 20%.

And the “predicted reduction of cardiovascular event rates” value ([4]; extrapolated from lipid effects by comparison with statin trial data)?
The value was 20-30%.

What about the “high-density lipoprotein/low-density lipoprotein ratio increase” value [4, 6] of the same molecule?
Its value is 17.7%.

And the “total cholesterol fall (non-significant)” value [4, 6]?
Its value is 3.7%.

What about the “high-density lipoprotein increase above baseline” value ([4]; intention-to-treat analysis, 12 months, 1 g elemental calcium daily, oral) of the same molecule?
Its value is 7.3%.

What about the low-density lipoprotein decline ([4]; intention-to-treat analysis, 12 months, 1 g elemental calcium daily, LDL calculated by Friedewald formula) of the same molecule?
Its low-density lipoprotein decline is 7.8%.

What about the “ratio of total cholesterol/high-density lipoprotein decline” value ([4]; intention-to-treat analysis, one year, 1 g elemental calcium daily) of the same molecule?
The value was 9.3%.

And the “treatment effect on triglycerides” value ([4]; intention-to-treat analysis, versus placebo (P=0.48))?
Its value is “no significant treatment effect”.

And the “change in high-density lipoprotein cholesterol versus placebo” value ([4]; protocol analysis excluding statin/fibrate users, FIG. 1A, P=0.05)?
Its value is “increase in high-density lipoprotein; also recorded: significant treatment effects”.

What about the “change in low-density lipoprotein cholesterol versus placebo” value ([4]; protocol analysis excluding statin/fibrate users, FIG. 1B, P=0.04) of the same molecule?
The value was “declined; also recorded: significant treatment effects”.

What about the “change in total cholesterol” value ([4]; protocol analysis excluding statin/fibrate users, FIG. 2A) of the same molecule?
The value was “did not change significantly”.

What about the “treatment effect on triglycerides” value ([4]; protocol analysis excluding statin/fibrate users, FIG. 3) of the same molecule?
Its value is “no significant treatment effect”.

And the “total cholesterol/high-density lipoprotein ratio decrease” value ([4]; protocol analysis excluding subjects who commenced a statin or fibrate)?
The value was 9.6%.

What about the “high-density lipoprotein/low-density lipoprotein ratio increase” value ([4]; protocol analysis excluding subjects who commenced a statin or fibrate, FIG. 2B) of the same molecule?
The value was 17%.

What about the “body weight decrease (mean ±SE)” value ([5]; intention-to-treat analysis, 1 g elemental calcium daily) of the same molecule?
The value was 289 ± 193 g.

And the “between-groups effect on body weight” value ([5]; versus placebo (P=0.54))?
The value was “no between-groups effect on body weight”.
